Laboratory results from paper PMC4769088, “Antifungal Activity and Action Mechanism of Histatin 5-Halocidin Hybrid Peptides against Candida ssp” (PLoS ONE, 2016).
Read-outs that look alike come from different tables or passages of the source. Where a SMILES comes first, the peptide text is derived from it. Bridges are numbered along the chain shown (N, C = ends). Roman numbers before positions name the chains, in order.

What was measured:
C. albicans strains = experiment: Broth dilution assay (MIC), C. albicans strains; format: cell-based, Candida albicans; details: 150 mM NaCl
Procedure: (§1) To determine the candidacidal activity of the peptides, we used Candida strains obtained from the Culture collection of antimicrobial resistant microbes at Seoul Women’s University in Korea. These included three Candida albicans (CCARM 14020, 14021, 14022), Candida guillermondi and Candida tropicalis. In addition, Candida albicans SC5413 was kindly provided by Dr Jeong-Yoon Kim at the Department of Microbiology & Molecular Biology, Chungnam University, Korea. Yeast were cultured overnight at 30°C in 10 ml of yeast extract-peptone-dextrose (YPD) broth (Qbiogene), then diluted in 10 ml of YPD broth to OD600 = 0.2 and grown for an additional 4 h with shaking at 30°C until OD600 = 0.8 in order to obtain mid-log phase cultures. The peptides (Hst 5, P113, HHP1, HHP2, PH1, PH2, di-PH1, di-PH2, WP1, di-WP2, di-15Hc and di-18Hc) in this study were synthesized by using standard solid-phase synthesis protocols and were purified by reversed-phase high-performance liquid chromatography at Anygen Inc. (Korea). FITC-labeled peptides (F-Hst5, F-P113, F-HHP1, F-di-PH2, F-di-WP2 and F-di-18Hc) were also synthesized by 6-aminohexnoic acid linker at Anygen (Korea) for confocal experiments.
(§2) The candidacidal activities of the peptides were tested by using standard microdilution plate assays, radial diffusion assays and broth dilution assay slightly modified from the procedure recommended by the National Committee for Clinical Laboratory Standards. For the candidacidal assays, C. albicans cells were grown in YPD medium and washed twice with 10 mM sodium phosphate buffer (NaPB; Na2HPO4, NaH2PO4, pH 7.4). The cells (1 x 10^6) were then mixed with different concentrations of peptides and incubated at 30°C with constant shaking for 60 min. For energy depletion experiments, cells were pre-incubated with 10 mM NaPB containing 5 mM NaN3 at 30°C for 60 min before the addition of peptides. The cell suspensions were diluted in 10 mM NaPB and aliquots of 500 cells were spread onto YPD agar plates then incubated for 24 h at 30°C to visualize the surviving colonies. Cell survival was expressed as a percentage of that for the control, and the loss of viability was calculated as [1 x (number of colonies from peptide-treated cells/number of colonies from control cells)] x 100. Candidacidal assays were performed in triplicate. For the radial diffusion assay, C. albicans cells were grown in YPD medium overnight and washed twice with 10 mM NaPB. Washed yeast-phase C. albicans cells (1 x 10^6 CFU) were trapped in thin underlay gels containing 9 mM sodium phosphate, 1 mM sodium citrate buffer, 1% (wt/vol) agarose (A6013; Sigma), and 0.3 mg of Sabouraud dextrose broth (Difco)/ml. After incubation at 37°C for 3 h, a 10 ml overlay gel of 1% agarose and 6% Sabouraud dextrose broth was poured on the underlay gel and then the plates were incubated overnight at 37°C. The clear-zone diameters were measured to the nearest 0.1 mm and graphed against the peptide concentration. Zone diameters were expressed in units (0.1 mm = 1 unit). For the broth dilution assay, the Candida strains were cultured in LYM broth for 18 h at 30°C. The numbers of yeasts were counted using a hemocytometer. Stock peptide solutions were prepared to a concentration of 320 μg/ml in distilled water, and were then serially diluted twofold, to 5 μg/ml. […] The antifungal activities were evaluated after 24 h of incubation at 30°C by the observation of visible turbidity the wells. […]

Candida cells = experiment: ROS production (DCFH-DA fluorometric assay); format: cell-based, Candida albicans; details: 32 μg/ml peptide, 120 min, 10 μM DCFH-DA, ex 485 / em 530 nm
Procedure: The amount of ROS produced by Candida cells treated with peptides was measured by a fluorometric assay with DCFHDA as described earlier. Briefly, the cells were adjusted to an OD600 of 1 in 10 ml of NaPB and centrifuged at 5000 ×g for 10 min. The cell pellet was then resuspended in NaPB and treated with peptides alone or with ascorbic acid. After the addition of 10 μM 2`,7`dichlorofluorescein diacetate (DCFH-DA), the fluorescence intensity of the induced ROS production was recorded every 10 min at excitation and emission wavelengths of 485 nm and 530 nm, respectively, in a Perkin Elmer 2030 Reader (Victor X3).  Fig 7 The effect of peptides on ROS generation. Time-dependency of DCF fluorescence as a measure of ROS generation (A) and killing activity (B) were determined in Candida cells treated with peptides (32 μg/ml) or peptides + Ascorbic acid (200 μg/ml) by Perkin Elmer 2030 reader (VictorX 3) and colony count assay, respectively. The fluorescence obtained with the cells treated with 10 mM of H2O2 served as positive control and the cells without peptide served as negative control. The fluorescent intensity of DCF was recorded every 10 min for 120 min at excitation and emission wavelengths of 485 and 530 nm, respectively.

C. tropicalis = experiment: Broth dilution assay (MIC); format: cell-based, Candida tropicalis
Procedure: as §1
as §2, with “Washed yeast-phase C. albicans cells (1 x 10^6 CFU) were trapped in thin underlay gels containing 9 mM sodium phosphate, 1 mM sodium citrate buffer, 1% (wt/vol) agarose (A6013; Sigma), and 0.3 mg of Sabouraud dextrose broth (Difco)/ml. After incubation at 37°C for 3 h, a 10 ml overlay gel of 1% agarose and 6% Sabouraud dextrose broth was poured on the underlay gel and then the plates were incubated overnight at 37°C.” left out, “Zone diameters were expressed in units (0.1 mm = 1 unit). For the broth dilution assay, the Candida strains were cultured in LYM broth for 18 h at 30°C.” left out, “hemocytometer.” for “hemocytometer. Stock peptide solutions were prepared to a concentration of 320 μg/ml in distilled water, and were then serially diluted twofold, to 5 μg/ml.”

[1] = CD spectra, secondary structure analysis; format: physicochemical; details: 200 μg/ml peptide
Procedure: Circular dichroism (CD) spectra of the six peptides (Hst5, P113, HHP1, di-PH2, di-WP2 and di-18Hc) were measured with a J-715 spectropolarimeter (Jasco, Tokyo, Japan). Two hundred micrograms of each peptide was resuspended in 1 ml of 10 mM NaPB (pH 7.0) (i) without other additives, (ii) with 10% laminarin (LAM) or (iii) with 50% trifluoroethanol (TFE) (a known helix-inducing solvent). The spectra were measured at room temperature in a 1-mm-path-length quartz cell. The scanning speed was 10 nm/min (180 to 260 nm), and each spectrum was the average of five scans.
Fig 3 CD spectra of Hst5, P113, di-18Hc and hybrid peptides. This study was performed with one concentration (200 μg/ml) of each peptide in various buffers: 10 mM sodium phosphate buffer (Red line), 50% TFE in phosphate buffer (green line) and 20 mg of laminarin in phosphate buffer.

C.albicans CCARM 14021 = format: cell-based, Candida albicans
Procedure: as §1
The candidacidal activities of the peptides were tested by using standard microdilution plate assays, radial diffusion assays and broth dilution assay slightly modified from the procedure recommended by the National Committee for Clinical Laboratory Standards. For the candidacidal assays, C. albicans cells were grown in YPD medium and washed twice with 10 mM sodium phosphate buffer (NaPB; Na2HPO4, NaH2PO4, pH 7.4). The cells (1 x 10^6) were then mixed with different concentrations of peptides and incubated at 30°C with constant shaking for 60 min. For energy depletion experiments, cells were pre-incubated with 10 mM NaPB containing 5 mM NaN3 at 30°C for 60 min before the addition of peptides. The cell suspensions were diluted in 10 mM NaPB and aliquots of 500 cells were spread onto YPD agar plates then incubated for 24 h at 30°C to visualize the surviving colonies. Cell survival was expressed as a percentage of that for the control, and the loss of viability was calculated as [1 x (number of colonies from peptide-treated cells/number of colonies from control cells)] x 100. Candidacidal assays were performed in triplicate. For the radial diffusion assay, C. albicans cells were grown in YPD medium overnight and washed twice with 10 mM NaPB. Washed yeast-phase C. albicans cells (1 x 10^6 CFU) were trapped in thin underlay gels containing 9 mM sodium phosphate, 1 mM sodium citrate buffer, 1% (wt/vol) agarose (A6013; Sigma), and 0.3 mg of Sabouraud dextrose broth (Difco)/ml. After incubation at 37°C for 3 h, a 10 ml overlay gel of 1% agarose and 6% Sabouraud dextrose broth was poured on the underlay gel and then the plates were incubated overnight at 37°C. The clear-zone diameters were measured to the nearest 0.1 mm and graphed against the peptide concentration. Zone diameters were expressed in units (0.1 mm = 1 unit). For the broth dilution assay, the Candida strains were cultured in LYM broth for 18 h at 30°C. The numbers of yeasts were counted using a hemocytometer. Stock peptide solutions were prepared to a concentration of 320 μg/ml in distilled water, and were then serially diluted twofold, to 5 μg/ml. 100 μl aliquots of the diluted culture media containing candida cells (1 x 10^3) were dispensed into the wells of 96-well polypropylene microtiter plates (Costar 3879, Corning, NY), to which peptide solution (11 μl) was then added. In the experiments conducted to assess the candidacidal activity of peptides in the presence of salt, we used LYM supplemented with 150 mM NaCl for the culture medium, which was mixed with the peptide solution. The antifungal activities were evaluated after 24 h of incubation at 30°C by the observation of visible turbidity the wells. […]

CC(C)C[C@H](NC(=O)CNC(=O)[C@H](Cc1c[nH]cn1)NC(=O)[C@H](Cc1c[nH]cn1)NC(=O)[C@H](CCCNC(=N)N)NC(=O)[C@H](CCCCN)NC(=O)[C@H](C)N)C(=O)N[C@@H](CC(N)=O)C(=O)N[C@@H](CSSC[C@H](NC(=O)[C@H](CC(N)=O)NC(=O)[C@H](CC(C)C)NC(=O)CNC(=O)[C@H](Cc1c[nH]cn1)NC(=O)[C@H](Cc1c[nH]cn1)NC(=O)[C@H](CCCNC(=N)N)NC(=O)[C@H](CCCCN)NC(=O)[C@H](C)N)C(=O)N[C@@H](C)C(=O)N[C@@H](CCCCN)C(=O)N[C@@H](Cc1ccccc1)C(=O)N[C@@H](Cc1c[nH]cn1)C(N)=O)C(=O)N[C@@H](C)C(=O)N[C@@H](CCCCN)C(=O)N[C@@H](Cc1ccccc1)C(=O)N[C@@H](Cc1c[nH]cn1)C(N)=O [di-PH2] (I: H-AKRHHGLNCAKFH-NH2 / II: H-AKRHHGLNCAKFH-NH2; disulfide I:9-II:9 (inferred); N-terminus assumed)
killing activities against C. albicans strains in 150 mM salt (C. albicans strains): abolished
DCF fluorescence intensity (ROS generation) (Candida cells): constant increase in fluorescence intensity
killing activities against C. tropicalis in 150 mM NaCl salt (C. tropicalis; 150 mM NaCl): retained
increase in MIC against C. tropicalis at 150 mM salt (C. tropicalis; 150 mM NaCl versus no salt): 2 fold
Secondary structure (%) Beta ([1]; solvent 10mM NaPB (pH 7.0)): 29.2%
Secondary structure (%) Random ([1]; solvent 10mM NaPB (pH 7.0)): 70.8%
Secondary structure (%) Turn ([1]; solvent 10mM NaPB (pH 7.0)): 0.0%
Secondary structure (%) Helix ([1]; solvent 10mM NaPB (pH 7.0), room temperature, average of five scans): 0.0%
Secondary structure (%) Beta ([1]; solvent 50% TFE in 10 mM NaPB): 32.9%
Secondary structure (%) Helix ([1]; solvent 50% TFE in 10 mM NaPB): 10.1%
Secondary structure (%) Random ([1]; solvent 50% TFE in 10 mM NaPB): 51.8%
Secondary structure (%) Turn ([1]; solvent 50% TFE in 10 mM NaPB): 5.2%
MICs (C.albicans CCARM 14021; CCARM 14021, 24 h): 1 to 2 µg/mL
MICs (C.albicans CCARM 14021; NaCl 150 mM, LYM supplemented with 150 mM NaCl, 24 h at 30°C): 32< μg/ml
